This is an account of results in patent publication US6586441B2, “Adenosine receptor ligands and their use in the treatment of disease” (Hoffman-La Roche Inc., priority 2000, dated 2003).

The target in the assay is T1, human adenosine A2A receptor (Homo sapiens, UniProt P29274).
T1 construct: expressed in transfected cells; host or cells: CHO cells, semliki forest virus expression system; membrane preparation
T1 sequence (P29274 whole entry): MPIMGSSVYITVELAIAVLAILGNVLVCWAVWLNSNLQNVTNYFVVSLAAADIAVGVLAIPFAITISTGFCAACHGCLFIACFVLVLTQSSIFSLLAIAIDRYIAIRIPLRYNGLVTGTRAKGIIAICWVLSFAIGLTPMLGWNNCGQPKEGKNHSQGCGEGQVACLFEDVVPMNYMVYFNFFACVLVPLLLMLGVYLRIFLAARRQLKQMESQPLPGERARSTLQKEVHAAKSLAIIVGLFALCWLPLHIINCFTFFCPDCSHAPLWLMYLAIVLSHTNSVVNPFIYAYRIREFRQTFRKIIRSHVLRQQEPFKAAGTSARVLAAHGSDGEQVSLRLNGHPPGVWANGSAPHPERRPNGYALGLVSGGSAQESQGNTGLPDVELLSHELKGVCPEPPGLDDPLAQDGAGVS
In words: Human adenosine A2A receptor [3H]-SCH-58261 binding assay. The note with it: human A2a receptor, membranes of CHO cells, [3H]-SCH-58261; read-out: pKi (affinity to the human A2a receptor) (converted). The procedure: The gene encoding human adenosine A2A receptor was recombinantly introduced and expressed in chinese hamster ovary (CHO) cells using the semliki forest virus expression system. Cells were harvested, washed twice by centrifugation, homogenised and again washed by centrifugation. The final washed membrane pellet was suspended in a Tris (50 mM) buffer containing 120 mM NaCl, 5 mM KCl, 2 mM CaCl2 and 10 mM MgCl2 (pH 7.4) (buffer A). The [^3H]-SCH-58261 (Dionisotti et al., 1997, Br. J. Pharmacol. 121, 353; 1 nM) binding assay was carried out in 96-well plates in the presence of 2.5 μg of membrane protein, 0.5 mg of Ysi-poly-1-lysine SPA beads and 0.1 U adenosine deaminase in a final volume of 200 μl of buffer A. Non-specific binding was defined using xanthine amine congener (XAC; […]). Compounds were tested at 10 concentrations from 10 μM-0.3 nM. All assays were conducted in duplicate and repeated at least two times. Assay plates were incubated for 1 hour at room temperature before centrifugation and then bound ligand determined using a Packard Topcount scintillation counter. IC50 values were calculated using a non-linear curve fitting program and Ki values calculated using the Cheng-Prussoff equation.
As to `N#Cc1c(OCCc2ccccc2)nc(N)nc1-c1ccccc1` [Example 104, 2-Amino-4-phenethyloxy-6-phenyl-pyrimidine-5-carbonitrile], the Ki is 3.98 nM.

On to `CC(C)Oc1nc(N)nc(-c2ccco2)c1C#N` [Example 61, 2-Amino-4-furan-2-yl-6-isopropoxy-pyrimidine-5-carbonitrile], for which the Ki is 6.92 nM.

On to `COc1cccc(CNc2nc(N)nc(-c3ccco3)c2C#N)c1` [Example 291, 2-Amino-4-furan-2-yl-6-(3-methoxy-benzylamino)-pyrimidine-5-carbonitrile], for which the Ki is 3.31 nM.

Regarding `Cc1cccnc1COc1cc(N)nc(-c2ccco2)c1C#N` [Example 383, 6-Amino-2-furan-2-yl-4-(3-methyl-pyridin-2-yl-methoxy)-nicotinonitrile], the Ki was 1.91 nM.

Consider `Cc1cnc(CNc2nc(N)nc(-c3ccco3)c2C#N)c(C)c1` [Example 402, 2-Amino-4-[(3,5-dimethyl-pyridin-2-ylmethyl)-amino]-6-furan-2-yl-pyrimidine-5-carbonitrile], for which the Ki was 2.14 nM.

As to `Cc1cccnc1COc1nc(N)nc(-c2ccco2)c1C#N` [Example 361, 2-Amino-4-furan-2-yl-6-(3-methyl-pyridin-2-yl-methoxy)-pyrimidine-5-carbonitrile], the Ki is 0.603 nM.

For `N#Cc1c(NCc2cc3ccccc3cn2)nc(N)nc1-c1ccco1` [Example 367, 2-Amino-4-furan-2-yl-6-[(isoguinolin-3-yl-methyl)-amino]-pyrimidine-5-carbonitrile], the Ki is 2.29 nM.

On to `Cc1ccc(CNc2nc(N)nc(-c3ccco3)c2C#N)cc1C` [Example 347, 2-Amino-4-(3,4-dimethyl-benzylamino)-6-furan-2-yl-pyrimidine-5-carbonitrile], for which the Ki was 1.66 nM.

`Cc1cccc(COc2nc(N)nc(-c3ccco3)c2C#N)n1` [Example 237, 2-Amino-4-furan-2-yl-6-(6-methyl-pyridin-2-ylmethoxy)-pyrimidine-5-carbonitrile]: the Ki was 2.95 nM.

As to `Cc1coc(-c2nc(N)nc(SCCc3ccccn3)c2C#N)c1` [Example 422, 2-Amino-4-(4-methyl-furan-2-yl)-6-(2-pyridin-2-yl-ethylsulfanyl)-pyrimidine-5-carbonitrile], the Ki was 1.35 nM.

On to `Cc1ccc(-c2nc(N)nc(NCc3ccccc3)c2C#N)o1` [Example 245, 2-Amino-4-benzylamino-6-(5-methyl-furan-2-yl)-pyrimidine-5-carbonitrile], for which the Ki was 5.5 nM.

Regarding `Nc1nc(OCC=Cc2ccccc2)c(Br)c(-c2ccco2)n1` [Example 280, 5-Bromo-4-furan-2-yl-6-(3-phenyl-allyloxy)-pyrimidin-2-yl-amine], the Ki was 9.33 nM.

In the case of `Cc1cccc(COc2nc(N)nc(-c3ccc(C)o3)c2C#N)n1` [Example 246, 2-Amino-4-(5-methyl-furan-2-yl)-6-(6-methyl-pyridin-2-ylmethoxy)-pyrimidine-5-carbonitrile], the Ki is 1.86 nM.

In the case of `N#Cc1c(N)nc(SCc2ccccc2)c(C#N)c1-c1cccs1` [Example 389, 2-Amino-6-benzylsulfanyl-4-thiophen-2-yl-pyridine-3.5-dicarbonitrile], the Ki was 8.32 nM.

Regarding `Cc1ccnc(COc2nc(N)nc(-c3ccco3)c2C#N)c1` [Example 373, 2-Amino-4-furan-2-yl-6-(4-methyl-pyridin-2-yl-methoxy)-pyrimidine-5-carbonitrile], the Ki was 5.13 nM.

Take `N#Cc1c(OCc2cc3ccccc3cn2)nc(N)nc1-c1ccco1` [Example 366, 2-Amino-4-furan-2-yl-6-(isoguinolin-3-yl-methoxy)-pyrimidine-5-carbonitrile]: the Ki is 1.82 nM.

Turning to `N#Cc1c(NCCSc2ccccc2)nc(N)nc1-c1ccco1` [Example 302, 2-Amino-4-furan-2-yl-6-(2-phenylsulfanyl-ethylamino)-pyrimidine-5-carbonitrile], the Ki is 7.76 nM.

For `N#Cc1c(SCCCc2ccccc2)nc(N)nc1-c1ccco1` [Example 234, 2-Amino-4-furan-2-yl-6-(3-phenyl-propylsulfanl)-pyrimidine-5-carbonitrile], the Ki is 5.5 nM.

In the case of `Cc1cnc(COc2nc(N)nc(-c3ccco3)c2C#N)c(C)c1` [Example 401, 2-Amino-4-(3,5-dimethyl-pyridin-2-ylmethoxy)-6-furan-2-yl-pyrimidine-5-carbonitrile], the Ki was 0.692 nM.

As for `N#Cc1c(OCC=Cc2ccccc2)nc(N)nc1-c1ccco1` [Example 278, 2-Amino-4-furan-2-yl-6-(3-phenyl-allyloxy)-pyrimidine-5-carbonitrile], the Ki is 3.72 nM.

Turning to `Nc1nc(OCCc2ccccc2)c(Cl)c(-c2ccco2)n1` [Example 322, 5-Chloro-4-furan-2-yl-6-phenethyloxy-pyrimidin-2-yl-amine], the Ki is 9.77 nM.

For the compound `Cc1cccnc1COc1nc(N)nc(-c2cc(Br)co2)c1C#N` [Example 534, 2-Amino-4-(4-bromo-furan-2-yl)-6-(3-methyl-pyridin-2-yl-methoxy)-pyrimidine-5-carbonitrile], the Ki was 0.955 nM.

As to `N#Cc1c(SCc2ccccn2)nc(N)nc1-c1ccco1` [Example 284, 2-Amino-4-furan-2-yl-6-(pyridin-2-ylmethylsulfanyl)-pyrimidine-5-carbonitrile], the Ki is 3.89 nM.

Regarding `Nc1nc(SCCc2ccccn2)c(I)c(-c2ccco2)n1` [Example 352, 4-Furan-2-yl-5-iodo-6-(2-pyridin-2-yl-ethylsulfanyl)-pyrimidin-2-yl-amine], the Ki is 5.13 nM.

Consider `Cc1cnc(COc2nc(N)nc(-c3cc(Br)co3)c2C#N)c(C)c1` [Example 533, 2-Amino-4-(4-bromo-furan-2-yl)-6-(3,5-dimethyl-pyridin-2-yl-methoxy)-pyrimidine-5-carbonitrile], for which the Ki is 1.41 nM.

Take `N#Cc1c(SCCc2ccccn2)nc(N)nc1-c1ccco1` [Example 313, 2-Amino-4-furan-2—,yl-6-(2-pyridin-2-yl-ethylsulfanyl)-pyrimidine-5-carbonitrile]: the Ki is 0.832 nM.

For `N#Cc1c(NCc2ccc(N)cc2)nc(N)nc1-c1ccco1` [Example 305, 2-Amino-4-(4-amino-benzylamino)-6-furan-2-yl-pyrimidine-5-carbonitrile], the Ki was 8.91 nM.

With `CCCCSc1nc(N)nc(-c2ccco2)c1C#N` [Example 60, 2-Amino-4-butylsulfanyl-6-furan-2-yl-pyrimidine-5-carbonitrile], the Ki was 4.57 nM.

As for `N#Cc1c(NCCOc2ccccc2)nc(N)nc1-c1ccco1` [Example 235, 2-Amino-4-furan-2-yl-6-(2-phenoxy-ethylamino)-pyrimidine-5-carbonitrile], the Ki is 3.47 nM.

With `N#Cc1c(NCc2ccccc2Br)nc(N)nc1-c1ccco1` [Example 359, 2-Amino-4-(2-bromo-benzylamino)-6-furan-2-yl-pyrimidine-5-carbonitrile], the Ki is 0.631 nM.

For the compound `Cc1ccc(COc2nc(N)nc(-c3ccco3)c2C#N)cn1` [Example 381, 2-Amino-4-furan-2-yl-6-(6-methyl-pyridin-3-yl-methoxy)-pyrimidine-5-carbonitrile], the Ki was 3.47 nM.

Consider `N#Cc1c(OCCNc2ccccc2)nc(N)nc1-c1ccco1` [Example 231, 2-Amino-4-furan-2-yl-6-(2-1-phenylamino-ethoxy)-pyrimidine-5-carbonitrile], for which the Ki is 8.13 nM.

Regarding `N#Cc1c(OCc2ccccn2)nc(N)nc1-c1ccccc1` [Example 105, 2-Amino-4-phenyl-6-(pyridin-2-ylmethoxy)-pyrimidine-5-carbonitrile], the Ki is 7.41 nM.

For the compound `N#Cc1c(SCCc2ccccn2)nc(N)nc1-c1cccs1` [Example 370], the Ki was 8.91 nM.

Regarding `N#Cc1c(NCCCc2ccccc2)nc(N)nc1-c1ccco1` [Example 44, 2-Amino-4-furan-2-yl-6-(3-phenyl-propylamino)-pyrimidine-5-carbonitrile], the Ki is 2.51 nM.

`N#Cc1c(OCCc2ccccn2)nc(N)nc1-c1ccc(Cl)o1` [Example 525, 2-Amino-4-(5-chloro-furan-2-yl)-6-(2-pyridin-2-yl-ethoxy)-pyrimidine-5-carbonitrile]: the Ki is 0.871 nM.

Take `Cc1ccc(CNc2cc(N)nc(-c3ccco3)c2C#N)nc1` [Example 377, 6-Amino-2-furan-2-yl-4-[(5-methyl-pyridin-2-yl-methyl)-amino]-nicotinonitrile]: the Ki was 7.76 nM.

Turning to `N#Cc1nc(N)nc(-c2ccco2)c1C#N` [Example 94, 2-Amino-6-furan-2-yl-pyrimidine-4,5-dicarbonitrile], the Ki was 9.77 nM.

With `COc1ccccc1CNc1nc(N)nc(-c2ccco2)c1C#N` [Example 293, 2-Amino-4-furan-2-yl-6-(2-methoxy-benzylamino)-pyrimidine-5-carbonitrile], the Ki is 3.72 nM.

Take `N#Cc1c(SCCc2ccccc2)nc(N)nc1-c1ccco1` [Example 233, 2-Amino-4-furan-2-yl-6-phenethylsulfanyl-pyrimidine-5-carbonitrile]: the Ki was 2.75 nM.

As for `N#Cc1c(SCCc2ccccn2)nc(N)nc1-c1ccc(C(F)F)o1` [Example 538, 2-Amino-4-(5-difluoromethyl-furan-2-yl)-6-(2-pyridin-2-yl-ethylsulfanyl)-pyrimidine-5-carbonitrile], the Ki was 1.95 nM.
